pIC50: −log10 of the molar value. Like-named read-outs stand apart in the source and are kept apart here.

This is an account of results in patent US5240696A, “Treatment of periodontitis” (Chesebrough-Pond's USA Co., Division of Conopco, Inc., priority 1991, dated 1993).

One data set has as its target T1, cyclo-oxygenase (Ovis aries, UniProt P05979).
T1 construct: microsomal enzyme fraction, obtained from a 220,000 x g precipitate of a homogenate of sheep vesicular glands; from tissue; host or cells: sheep vesicular glands (lyophilized microsomal fraction, 220,000 x g precipitate)
T1 sequence (P05979 25-600): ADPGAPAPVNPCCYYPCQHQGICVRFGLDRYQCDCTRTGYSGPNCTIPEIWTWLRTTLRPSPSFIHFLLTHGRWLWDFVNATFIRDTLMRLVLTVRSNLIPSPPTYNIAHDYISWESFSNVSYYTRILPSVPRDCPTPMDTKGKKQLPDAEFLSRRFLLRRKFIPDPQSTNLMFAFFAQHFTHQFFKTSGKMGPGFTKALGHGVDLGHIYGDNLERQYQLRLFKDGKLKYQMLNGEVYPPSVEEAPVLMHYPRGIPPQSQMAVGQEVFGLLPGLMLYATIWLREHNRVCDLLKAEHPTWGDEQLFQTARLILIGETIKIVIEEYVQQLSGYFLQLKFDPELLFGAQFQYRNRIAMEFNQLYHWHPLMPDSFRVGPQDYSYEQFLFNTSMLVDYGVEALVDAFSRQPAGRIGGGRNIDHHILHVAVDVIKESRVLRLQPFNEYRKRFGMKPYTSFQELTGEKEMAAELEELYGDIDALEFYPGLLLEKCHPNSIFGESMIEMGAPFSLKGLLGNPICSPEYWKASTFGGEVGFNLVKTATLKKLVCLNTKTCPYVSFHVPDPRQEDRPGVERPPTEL
As to the kind of experiment: cyclo-oxygenase assay (oxygen consumption, Clark oxygen electrode). In kind it is biochemical, sheep. As to the method:
In vitro experiments were carried out to determine the I50 value of various cyclo-oxygenase inhibitors. […] These experiments were carried out as described in the general method given below, keeping the enzyme and substrate concentrations constant and using increasing inhibitor concentrations. Determinations at each inhibitor concentrations were carried out in duplicate.
The cyclo-oxygenase assay was carried out according to the method described by van der Ouderaa et al., "Methods in Enzymology" 86, page 60-68 (Academic Press Inc., 1982).
0.1M Tris-HCl (pH 8.0) kept at 25° C. and continuously aerated by bubbling air through the solution.
20 mg/ml in toluene kept under nitrogen at -20° C.
0.5 ml of stock solution was taken and the toluene removed under a stream of nitrogen. The substrate was suspended in 10 ml of incubation buffer, freshly prepared each day and kept at room temperature.
500 mg of dry lyophilized microsomal enzyme fraction, obtained from a 220,000 x g precipitate of a homogenate of sheep vesicular glands, was dispersed in 10 ml of incubation buffer for 5 min. using an Ultra Turrax homogeniser. The suspension was kept in ice throughout the experiment and shaken well before each sample was withdrawn.
0.23 mM in distilled water freshly prepared each day and kept on ice.
0.1 mM made up in incubation buffer, freshly prepared each day and kept on ice.
The cyclo-oxygenase activity was measured at 25° C. by monitoring the oxygen consumption as a result of cyclo-oxygenation of the substrate using a Clark oxygen electrode.
A typical experimental run was carried out as follows.
The mixture was then stirred for 5 min. to allow temperature equilibrium and to achieve a steady baseline on the chart recorder monitoring the dissolved oxygen concentration. Substrate solution (100 μl) was quickly injected into the cell to start the reaction and the oxygen consumption was typically monitored for 5 min. following addition of substrate.
The cyclo-oxygenase activity of the sample was calculated from the oxygen consumption curve assuming that maximum deflection of the recorder corresponds to 0.26 mM dissolved oxygen in the buffer and that 2 moles of oxygen are consumed per mole of substrate. The linear part of the sigmoid curve of oxygen consumption was used for initial-rate calculations.
The experiments were standardised by measuring the activity of the enzyme stock solution before and after each set of kinetic experiments and normalizing results to the mean activity.
Triclosan was dissolved in ethanol; AN-10 and APCF3-8 were dissolved in polyethyleneglycol (MW 400) and sodium salicylate was used as an aqueous solution. The concentration of the inhibitor solutions were adjusted so that only 10 μl of the inhibitor solution was added.

Data set [1] concerns Neonatal mouse calvaria. The data set can be described thus: Bone loss in vitro: calcium release from calvaria stimulated with PGE2. The class given is cell-based. The conditions noted are these: Example 2. As to the method:
(§1) The experimental method used is fully described in Meghi,S et al. Brit. J. Cancer (1988) 58, pp 17-21. Neonatal mouse calvaria were isolated with minimum trauma and maintained in a nutrient medium appropriate for cell culture (DMEM+15% horse serum) at […] in 100% humidity, the medium also containing the materials under test. The pH was maintained in an atmosphere of 5% CO2. After 24 h the medium was discarded, the calvaria were divided into control and test groups, and the medium was replaced with fresh medium containing the materials under test. Prostaglandin E2 (PGE2, 10^-6 M) was added with or without Triclosan as appropriate to stimulate the release of calcium ions (i.e. bone resorption) from the calvaria. After two days further culture in the test media the release of calcium into the medium from the calvaria was determined by atomic absorption spectroscopy. Calcium release is a measure of bone resorption (i.e. degradation of bone) regulated by the specialised cells (osteoblasts and osteoclasts) on the bone surface. Net calcium release was obtained by subtracting the basal medium calcium level.

The test system of data set [2] is Actinobacillus actinomycetemcomitans. As to the kind of experiment: MIC-value of Triclosan for periodontal micro organisms. The class given is cell-based.
A short description of data set [3]: Retention by gingival tissue following topical application. The conditions noted are these: in vitro and in vivo.
Data set [4] deals with Neonatal mouse calvaria. As to the kind of experiment: Bone loss in vitro: calcium release from calvaria stimulated with thrombin. In kind it is cell-based. As to the method: as §1
The test method of Example 2 was repeated, using thrombin, however, as bone loss stimulator, and using indomethacin as a cyclo-oxygenase inhibitor as control.
The procedure of Example 3 was repeated, also using zinc citrate as addition.

Setting [5] is: sheep vesicular gland microsomal enzyme, 8,11,14-eicosatrienoic acid substrate, 25° C., pH 8.0, read-out: I50 (concentration of inhibitor which gives 50% inhibition of cyclo-oxygenase activity).

In the case of `CCCCCCCCCC(=O)c1ccc(O)c(C(=O)Nc2ccc([N+](=O)[O-])cc2)c1` [AN-10, 5-n-decanoyl-4'nitrosalicylanilide], the pIC50 on cyclo-oxygenase (setting [5]) is 3.74.

As to `CCCCCCCC(=O)c1ccc(O)c(C(=O)Nc2cccc(C(F)(F)F)c2)c1` [APCF3-8, 5-n-octanoyl-'trifluoromethylphenyl-salicylanilide], the pIC50 on cyclo-oxygenase (setting [5]) was 3.62.

Regarding `CCCCC[C@H](O)/C=C/[C@H]1[C@H](O)CC(=O)[C@@H]1C/C=C\CCCC(=O)O` [PGE2, Prostaglandin E2], the “Net Calcium Release” value in the data set on Neonatal mouse calvaria [1] (PGE2 10^-6 M alone (positive control), two days culture) was determined as 3.5 mg/dL.

`Oc1cc(Cl)ccc1Oc1ccc(Cl)cc1Cl` [Triclosan, 2',4,4'-trichloro-2-hydroxy-diphenyl-ether] displayed an MIC-value in data set [2] of 0.0005%. The “Net Calcium Release” value was 1.4 mg/dL in the data set on Neonatal mouse calvaria [1] (+ PGE2 (10^-6 M) and 1.10^-5 Triclosan); -0.1 mg/dL in the data set with Neonatal mouse calvaria [1] (+ PGE2 (10^-6 M) and 2.5.10^-5 M Triclosan); 0.2 mg/dL in the data set on Neonatal mouse calvaria [4] (Example 3, + thrombin and 1.10^-5 M Triclosan); -0.6 mg/dL in the data set on Neonatal mouse calvaria [4] (Example 3, + thrombin and 5.10^-5 M Triclosan); 0.75 mg/dL in the data set with Neonatal mouse calvaria [4] (Example 4, + thrombin and 5.10^-6 M Triclosan). For the same molecule, the “retention by gingival tissue” value in data set [3] was “retained by gingival tissue both in vitro and in vivo”. For the same molecule, on cyclo-oxygenase, the pIC50 is 3.81. In addition, on cyclo-oxygenase (in words), the anti-cyclo-oxygenase activity result is “considerable anti-cyclo-oxygenase activity”. Besides, at cyclo-oxygenase (in words, salicylamides of U.S. Pat. No. 4,742,083), the “anti-inflammatory potency compared with the preferred substituted salicylamides” value is listed as “much more potent anti-inflammatory agent than the preferred substituted salicylamides”.

On to `COc1ccc2c(c1)c(CC(=O)O)c(C)n2C(=O)c1ccc(Cl)cc1` [indomethacin], for which the “Net Calcium Release” value with Neonatal mouse calvaria [4] (Example 3, + thrombin and 10^-6 M indomethacin) came to 0.4 mg/dL; in the data set on Neonatal mouse calvaria [4] (Example 4, + thrombin and 10^-6 M indomethacin), 0.0 mg/dL.

As to `O=C([O-])CC(O)(CC(=O)[O-])C(=O)[O-].O=C([O-])CC(O)(CC(=O)[O-])C(=O)[O-].[Zn+2].[Zn+2].[Zn+2]` [zinc citrate], the “Net Calcium Release” value in the data set on Neonatal mouse calvaria [4] (Example 4, + thrombin and 1.10^-4 M zinc citrate) came out at 1.3 mg/dL; in the data set on Neonatal mouse calvaria [4] (Example 4, + thrombin and 2.10^-4 M zinc citrate), 0.8 mg/dL; in the data set on Neonatal mouse calvaria [4] (Example 4, + thrombin and 5.10^-5 M zinc citrate) it was 1.4 mg/dL.

For thrombin, the “Net Calcium Release” value with Neonatal mouse calvaria [4] (Example 3, + thrombin alone) came to 3.9 mg/dL; in the data set with Neonatal mouse calvaria [4] (Example 4, thrombin alone), 2.4 mg/dL.
